Source: patent publication EP4104902B1, “COMPOUNDS AND M[…] SAME” (priority 2020, dated 2021)

Tested on: recombinant rabies virus 1088 strain expressing Gaussia Luciferase (GLuc) (1088/GLuc)
Experiment: not given
Assay type: cell-based
Settings: read-out: Anti-rabies activity

Structure (SMILES) | IC50 [µM]
CC(C)CN1C[C@@H]2C[C@H]3CN[C@]2(C(=O)NCc2ccc(Cl)cc2)[C@@H]1[C@@H]3CCc1ccccc1 (relative stereo) [IB-925] | < 5
CC(C)CN1C[C@@H]2C[C@H]3CN[C@]2(C(=O)NCc2cccc(Cl)c2)[C@@H]1[C@@H]3CCc1ccccc1 (relative stereo) [IB-926] | < 5
COc1ccc(CNC(=O)[C@]23NC[C@@H]4C[C@H]2CN(CC(C)C)[C@H]3[C@@H]4CCc2ccccc2)cc1 (relative stereo) [IB-927] | < 5
Cc1ccc(CNC(=O)[C@]23NC[C@@H]4C[C@H]2CN(CC(C)C)[C@H]3[C@@H]4CCc2ccccc2)cc1 (relative stereo) [IB-928] | < 5
CC(C)CN1C[C@@H]2C[C@H]3CN[C@]2(C(=O)NCc2ccc4ccccc4c2)[C@@H]1[C@@H]3CCc1ccccc1 (relative stereo) [IB-929] | < 5
CC(C)CN1C[C@@H]2C[C@H]3CN[C@]2(C(=O)NCc2ccccc2)[C@@H]1[C@@H]3CCCc1ccccc1 (relative stereo) [IB-930] | < 5
CC(C)CN1C[C@@H]2C[C@H]3CN[C@]2(C(=O)NCc2cccc(Cl)c2)[C@@H]1[C@@H]3CCCc1ccccc1 (relative stereo) [IB-931] | < 5
CC(C)CN1C[C@@H]2C[C@H]3CN[C@]2(C(=O)NCc2cccc(F)c2)[C@@H]1[C@@H]3CCCc1ccccc1 (relative stereo) [IB-932] | < 5
Cc1cccc(CNC(=O)[C@]23NC[C@@H]4C[C@H]2CN(CC(C)C)[C@H]3[C@@H]4CCCc2ccccc2)c1 (relative stereo) [IB-933] | < 5
COc1cccc(CNC(=O)[C@]23NC[C@@H]4C[C@H]2CN(CC(C)C)[C@H]3[C@@H]4CCCc2ccccc2)c1 (relative stereo) [IB-934] | < 5
CC(C)CN1C[C@@H]2C[C@H]3CN[C@]2(C(=O)NCc2cccc(Cl)c2)[C@@H]1[C@@H]3CCCCc1ccccc1 (relative stereo) [IB-935] | < 5
CCOc1ccc(CN2CC3CC4CNC3(C(=O)NCc3ccccc3)C2C4CC(C)C)cc1 (stereo not shown) [IB-878] | 10 to 30
CC(C)CC1C2CNC3(C(=O)NCc4ccc5ccccc5c4)C(C2)CN(Cc2ccccc2)C13 (stereo not shown) [IB-879] | < 5
CCN1CC2CC3CN(Cc4ccc(C)cc4)C(C2CC(C)C)C31C(=O)NCc1ccccc1 (stereo not shown) [IB-880] | < 5
Cc1ccc(CN2CC3CC4CN(CC(C)C)C3(C(=O)NCc3ccccc3)C2C4CC(C)C)cc1 (stereo not shown) [IB-881] | < 5
Cc1ccc(CN2CC3CC4CN(C(=O)CC(C)C)C3(C(=O)NCc3ccccc3)C2C4CC(C)C)cc1 (stereo not shown) [IB-883] | < 5
COC(=O)N1CC2CC3CN(Cc4ccc(C)cc4)C(C2CC(C)C)C31C(=O)NCc1ccccc1 (stereo not shown) [IB-885] | 5 to 10
Cc1ccc(CN2CC3CC4CN(C(=O)OCC(C)C)C3(C(=O)NCc3ccccc3)C2C4CC(C)C)cc1 (stereo not shown) [IB-886] | 5 to 10
Cc1ccc(CN2CC3CC4CN(C(=O)OCc5ccccc5)C3(C(=O)NCc3ccccc3)C2C4CC(C)C)cc1 (stereo not shown) [IB-887] | 5 to 10
Cc1ccc(CN2CC3CC4CN(C(N)=O)C3(C(=O)NCc3ccccc3)C2C4CC(C)C)cc1 (stereo not shown) [IB-888] | 10 to 30
Cc1ccc(CN2CC3CC4CN(C(=O)NCc5ccccc5)C3(C(=O)NCc3ccccc3)C2C4CC(C)C)cc1 (stereo not shown) [IB-889] | 5 to 10
CC(C)CC1C2CNC3(C(=O)NCc4cccc(O)c4)C(C2)CN(Cc2ccc(N(C)C)cc2)C13 (stereo not shown) [IB-891] | 10 to 30
CC(C)CC1C2CNC3(C(=O)NCc4ccc(O)cc4)C(C2)CN(Cc2ccc(N(C)C)cc2)C13 (stereo not shown) [IB-892] | 10 to 30

Structure (SMILES) | IC50 [µM]
CC(C)CC1C2C3CNC1(C(=O)NCc1ccccc1)CC3CN2Cc1ccccc1 (stereo not shown) [IF-7] | 5 to 10
CC(C)CCN1CC2CC3(C(=O)NCc4ccccc4)NCC2C1C3Cc1ccccc1 (stereo not shown) [IF-9] | 10 to 30
NC(=O)CN1CC2CC3(C(=O)NCCc4ccccc4)NCC2C1C3Cc1cccc2ccccc12 (stereo not shown) [IF-90] | 10 to 30
NC(=O)CN1CC2CC3(C(=O)NCc4cccc5ccccc45)NCC2C1C3Cc1cccc2ccccc12 (stereo not shown) [IF-91] | < 5
CC(C)CCN1CC2CC3(C(=O)NC(C)C)NCC2C1C3CCCNC(=N)N (stereo not shown) [IF-214] | 10 to 30
NC(=O)CCNC(=O)C12CC3CN(CCc4ccccc4)C(C3CN1)C2CC(N)=O (stereo not shown) [IF-219] | 10 to 30
NC(=O)CC1C2C3CNC1(C(=O)NCc1cccc4ccccc14)CC3CN2CCc1ccccc1 (stereo not shown) [IF-223] | 10 to 30
CC(C)CNC(=O)C12CC3CN(Cc4cccc5ccccc45)C(C3CN1)C2CC(N)=O (stereo not shown) [IF-226] | 10 to 30
NC(=O)CC1C2C3CNC1(C(=O)NCCO)CC3CN2Cc1cccc2ccccc12 (stereo not shown) [IF-230] | 10 to 30
CC(C)CCNC(=O)C12CC3CN(CCCNC(=N)N)C(C3CN1)C2Cc1cccc2ccccc12 (stereo not shown) [IF-356] | 10 to 30
N=C(N)NCCCN1CC2CC3(C(=O)NCCc4ccccc4)NCC2C1C3Cc1ccc(O)cc1 (stereo not shown) [IF-359] | 10 to 30
O=C(O)CCNC(=O)C12CC3CN(CC4CCCCC4)C(C3CN1)C2Cc1cccc2ccccc12 (stereo not shown) [IF-416] | 10 to 30
O=C(O)CCNC(=O)C12CC3CN(Cc4ccc(F)cc4)C(C3CN1)C2Cc1cccc2ccccc12 (stereo not shown) [IF-417] | 10 to 30
O=C(O)CCC1C2C3CNC1(C(=O)NCc1cccc4ccccc14)CC3CN2CC1CCCCC1 (stereo not shown) [IF-419] | 10 to 30
CC(C)CCC1C2C3CNC1(C(=O)NCc1cccc4ccccc14)CC3CN2CCC(=O)O (stereo not shown) [IF-422] | 10 to 30
CC(C)CN1CC2CC3(C(=O)NCCC(=O)O)NCC2C1C3Cc1cccc2ccccc12 (stereo not shown) [IF-428] | 10 to 30
NC(=O)CCNC(=O)C12CC3CN(Cc4cccc5ccccc45)C(C3CN1)C2Cc1ccc(O)cc1 (stereo not shown) [IF-435] | < 5
CC(C)CCN1CC2CC3(C(=O)NCCc4ccccc4)NCC2C1C3CC(C)C (stereo not shown) [IF-437] | 10 to 30
O=C(NCCc1ccccc1)C12CC3CN(CC4CCCCC4)C(C3CN1)C2Cc1ccc(O)cc1 (stereo not shown) [IF-439] | < 5
O=C(O)CCNC(=O)C12CC3CN(CCO)C(C3CN1)C2Cc1cccc2ccccc12 (stereo not shown) [IF-444] | 10 to 30
CC(C)CCN1CC2CC3(C(=O)NCc4ccc(O)cc4)NCC2C1C3CCC(=O)O (stereo not shown) [IF-445] | 10 to 30
O=C(O)CCC1C2C3CNC1(C(=O)NCc1ccc(O)cc1)CC3CN2CC1CCCCC1 (stereo not shown) [IF-447] | 10 to 30
O=C(O)CCN1CC2CC3(C(=O)NCCO)NCC2C1C3Cc1cccc2ccccc12 (stereo not shown) [IF-452] | 10 to 30

Structure (SMILES) | IC50 [µM]
CC(C)CNC(=O)C12CC3CN(CCC(=O)O)C(C3CN1)C2CCc1ccccc1 (stereo not shown) [IF-454] | 10 to 30
CC(C)CNC(=O)C12CC3CN(CCC(=O)O)C(C3CN1)C2Cc1ccc(O)cc1 (stereo not shown) [IF-455] | 10 to 30
CC(C)CCC1C2C3CNC1(C(=O)NCc1ccc(O)cc1)CC3CN2CCC(=O)O (stereo not shown) [IF-458] | 10 to 30
O=C(NCc1cccc2ccccc12)C12CC3CN(Cc4ccccc4)C(C3CN1)C2Cc1ccccc1 (stereo not shown) [IF-805] | 10 to 30
CC(C)CC1C2C3CNC1(C(=O)NCc1ccc(F)cc1)CC3CN2Cc1ccccc1 (stereo not shown) [IF-807] | < 5
CC(C)CN1CC2CC3(C(=O)NCc4ccc(F)cc4)NCC2C1C3Cc1ccccc1 (stereo not shown) [IF-815] | < 5
CC(C)CCN1CC2CC3(C(=O)NCCC(=O)O)NCC2C1C3CCc1ccccc1 (stereo not shown) [IF-830] | 10 to 30
CC(C)CC1C2C=NC3(C(=O)NCc4ccccc4)C(C2)CN(Cc2ccc(Cl)cc2)C13 (stereo not shown) [IIB-83] | < 5
CC(C)CC1C2C=NC3(C(=O)NCc4ccccc4)C(C2)CN(Cc2cccc(Cl)c2)C13 (stereo not shown) [IIB-84] | < 5
COc1ccc(CN2CC3CC4C=NC3(C(=O)NCc3ccccc3)C2C4CC(C)C)cc1 (stereo not shown) [IIB-85] | 5 to 10
Cc1ccc(CN2CC3CC4C=NC3(C(=O)NCc3ccccc3)C2C4CC(C)C)cc1 (stereo not shown) [IIB-86] | 5 to 10
CC(C)CC1C2C=NC3(C(=O)NCc4ccccc4)C(C2)CN(Cc2ccc(N(C)C)cc2)C13 (stereo not shown) [IIB-94] | 5 to 10
CN1CC2CC3C=NC2(C(=O)NCCc2cccc4cccnc24)C1C3Cc1ccccc1 (stereo not shown) [IIB-329] | < 5
CN1CC2CC3C=NC2(C(=O)NCCc2cccc4ncccc24)C1C3Cc1ccccc1 (stereo not shown) [IIB-330] | < 5
COc1ccc(CNC(=O)C23N=CC4CC2CN(CC(C)C)C3C4CCc2ccccc2)cc1 (stereo not shown) [IIB-333] | < 5
CC(C)CC1C2C3C=NC1(C(=O)NCc1ccccc1)CC3CN2Cc1ccc(Cl)cc1 (stereo not shown) [IIF-83] | < 5
CC(C)CC1C2C3C=NC1(C(=O)NCc1ccccc1)CC3CN2Cc1cccc(Cl)c1 (stereo not shown) [IIF-84] | 5 to 10
COc1ccc(CN2CC3CC4(C(=O)NCc5ccccc5)N=CC3C2C4CC(C)C)cc1 (stereo not shown) [IIF-85] | 5 to 10
Cc1ccc(CN2CC3CC4(C(=O)NCc5ccccc5)N=CC3C2C4CC(C)C)cc1 (stereo not shown) [IIF-86] | < 5
CC(C)CC1C2C3C=NC1(C(=O)NCc1ccccc1)CC3CN2Cc1ccc(N(C)C)cc1 (stereo not shown) [IIF-94] | 5 to 10
CC(C)CC1C2C3C=NC1(C(=O)NCc1ccccc1)CC3CN2Cc1ccc(C(C)(C)C)cc1 (stereo not shown) [IIF-95] | < 5
CC(C)CC1C2C3C=NC1(C(=O)NCc1ccccc1)CC3CN2Cc1ccc(OC(F)(F)F)cc1 (stereo not shown) [IIF-96] | 5 to 10
CCOc1ccc(CN2CC3CC4(C(=O)NCc5ccccc5)N=CC3C2C4CC(C)C)cc1 (stereo not shown) [IIF-97] | 10 to 30

Same assay, conditions: read-out: IC50

Structure (SMILES) | IC50 [µM]
CC(C)CC1C2C3CNC1(C(=O)NCc1ccccc1)CC3CN2Cc1ccccc1 (stereo not shown) [IF-7] | 8.5
CC(C)CCN1CC2CC3(C(=O)NCc4ccccc4)NCC2C1C3Cc1ccccc1 (stereo not shown) [IF-9] | 15.6

Tested on: mouse neuroblastoma cell strain Neuro-2A
Experiment: Anti-cancer cell activity evaluation (minimum inhibitory concentration with respect to cells)
Assay type: cell-based
Settings: MIC, compounds of formula XXIB, 3 days

Structure (SMILES) | Anti-cancer cell activity
CC(C)CN1C[C@@H]2C[C@H]3CN[C@]2(C(=O)NCc2ccc(Cl)cc2)[C@@H]1[C@@H]3CCc1ccccc1 (relative stereo) [IB-925] | c (c if greater than 20 µM and less than or equal to 40 µM)
CC(C)CN1C[C@@H]2C[C@H]3CN[C@]2(C(=O)NCc2cccc(Cl)c2)[C@@H]1[C@@H]3CCc1ccccc1 (relative stereo) [IB-926] | b (b if greater than 10 µM and less than or equal to 20 µM)
COc1ccc(CNC(=O)[C@]23NC[C@@H]4C[C@H]2CN(CC(C)C)[C@H]3[C@@H]4CCc2ccccc2)cc1 (relative stereo) [IB-927] | c (c if greater than 20 µM and less than or equal to 40 µM)
Cc1ccc(CNC(=O)[C@]23NC[C@@H]4C[C@H]2CN(CC(C)C)[C@H]3[C@@H]4CCc2ccccc2)cc1 (relative stereo) [IB-928] | c (c if greater than 20 µM and less than or equal to 40 µM)
CC(C)CN1C[C@@H]2C[C@H]3CN[C@]2(C(=O)NCc2ccc4ccccc4c2)[C@@H]1[C@@H]3CCc1ccccc1 (relative stereo) [IB-929] | b (b if greater than 10 µM and less than or equal to 20 µM)
CC(C)CN1C[C@@H]2C[C@H]3CN[C@]2(C(=O)NCc2ccccc2)[C@@H]1[C@@H]3CCCc1ccccc1 (relative stereo) [IB-930] | c (c if greater than 20 µM and less than or equal to 40 µM)
CC(C)CN1C[C@@H]2C[C@H]3CN[C@]2(C(=O)NCc2cccc(Cl)c2)[C@@H]1[C@@H]3CCCc1ccccc1 (relative stereo) [IB-931] | c (c if greater than 20 µM and less than or equal to 40 µM)
CC(C)CN1C[C@@H]2C[C@H]3CN[C@]2(C(=O)NCc2cccc(F)c2)[C@@H]1[C@@H]3CCCc1ccccc1 (relative stereo) [IB-932] | c (c if greater than 20 µM and less than or equal to 40 µM)
Cc1cccc(CNC(=O)[C@]23NC[C@@H]4C[C@H]2CN(CC(C)C)[C@H]3[C@@H]4CCCc2ccccc2)c1 (relative stereo) [IB-933] | b (b if greater than 10 µM and less than or equal to 20 µM)
COc1cccc(CNC(=O)[C@]23NC[C@@H]4C[C@H]2CN(CC(C)C)[C@H]3[C@@H]4CCCc2ccccc2)c1 (relative stereo) [IB-934] | b (b if greater than 10 µM and less than or equal to 20 µM)
CC(C)CN1C[C@@H]2C[C@H]3CN[C@]2(C(=O)NCc2cccc(Cl)c2)[C@@H]1[C@@H]3CCCCc1ccccc1 (relative stereo) [IB-935] | c (c if greater than 20 µM and less than or equal to 40 µM)
